Values of other authors, collected in patent publication US20160249623A1, “METHODS FOR DISPENSING SALT-FREE HYPOCHLOROUS ACID FOR HAND-SANITIZING” (priority 2015, published 2016).

Key:
[1] = tested on: all viruses, bacteria, mold and spores
[2] = tested on: HIV (Human Immunodeficiency Virus); settings: the longest kill-time

In the case of `OCl` [HOCI, hypochlorous acid], the kill-time [1] is given as “within seconds” and the kill-time [2] is given as “less than 1 minute”.
